One data set relates to HEK293. The data set can be described thus: Toxicity against HEK293 cells assessed as reduction in cell viability at 10 uM incubated for 24 hrs by cell titre blue viability assay relative to control. In kind it is cell-based. The following applies: human, hek293, 24 h.
The test system of data set [1] is MDA-MB-231. Briefly: Toxicity against human MDA-MB-231 cells assessed as reduction in cell viability at 10 uM incubated for 24 hrs by cell titre blue viability assay relative to control. The data set is classed as cell-based. Conditions: mda-mb-231, 24 h.
The nature of data set [2]: Solubility in water assessed per 100 ml. The data set is classed as physicochemical. The following applies: buffer.
Data set [3] in a line: Solubility in methanol assessed per 100 ml. In kind it is physicochemical.
Data set [4] in a line: Solubility in ethanol assessed per 100 ml. In kind it is physicochemical.
Data set [5] can be described thus: Solubility in DMSO assessed per 100 ml. In kind it is physicochemical.
Data set [6] is described as follows: Solubility in ethyl acetate assessed per 100 ml. The data set is classed as physicochemical.
Data set [7] can be described thus: Solubility in dichloromethane assessed per 100 ml. In kind it is physicochemical.
Data set [8] can be described thus: Solubility in diethyl ether assessed per 100 ml. The data set is classed as physicochemical.
The test system of data set [9] is MDA-MB-231. The data set can be described thus: Inhibition of cell migration of human MDA-MB-231 cells overexpressing Bcl-3 assessed as reduction in cell motility incubated for 24 hrs by Boyden chamber assay. The data set is classed as functional, cell-based. Conditions: MDA-MB-231, 24 h.
Data set [10] concerns the target T1, B-cell lymphoma 3 protein (Homo sapiens) (UniProt P20749).
T1 sequence (whole entry): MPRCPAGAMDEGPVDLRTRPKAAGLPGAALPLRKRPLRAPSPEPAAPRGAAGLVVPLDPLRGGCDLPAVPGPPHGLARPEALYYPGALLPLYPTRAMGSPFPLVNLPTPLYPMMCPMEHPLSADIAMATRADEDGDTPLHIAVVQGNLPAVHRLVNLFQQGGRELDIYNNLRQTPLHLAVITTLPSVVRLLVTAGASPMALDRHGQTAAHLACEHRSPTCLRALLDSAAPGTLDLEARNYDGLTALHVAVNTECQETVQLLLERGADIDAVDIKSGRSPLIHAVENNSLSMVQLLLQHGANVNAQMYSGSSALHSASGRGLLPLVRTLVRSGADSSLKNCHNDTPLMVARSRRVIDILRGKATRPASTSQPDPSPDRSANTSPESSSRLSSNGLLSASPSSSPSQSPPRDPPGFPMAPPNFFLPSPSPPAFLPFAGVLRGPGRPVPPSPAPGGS
Briefly: Inhibition of Bcl-3 in human MDA-MB-231 cells assessed as reduction in NF-kappaB signalling at 1 uM incubated for 24 hrs by NF-kappaB promoter dependent luciferase reporter gene assay. In kind it is cell-based. In general terms: A reporter such as luciferase makes a cellular process visible.

In data set [11] the test system is MDA-MB-231. The data set can be described thus: Inhibition of cell migration of human MDA-MB-231 cells overexpressing Bcl-3 assessed as cell motility at 10 nM incubated for 24 hrs by Boyden chamber assay relative to control. The data set is classed as functional. On the set-up: scale not given: the % may be the effect or the level left.

Calls of active or inactive are those of the source. The calls are words filed in the database; no cut-off is given here. Where only a bound is given, the exact number is not on record here.

For `O=C(Nc1ccccc1C(=O)NCCc1ccccn1)c1ccccc1F`, the Activity with HEK293 and in the data set on MDA-MB-231 [1] was above 70% throughout.

As for `O=C(Nc1cccc(Cl)c1C(=O)NCCN1CCOCC1)c1ccccc1F`, the Activity in the data set with HEK293 and with MDA-MB-231 [1] was above 70% throughout.

Consider `Cc1cccc(C(=O)NCCN2CCOCC2)c1NC(=O)c1ccccc1F`, for which the Activity in the data set with HEK293 and with MDA-MB-231 [1] was above 70% each time.

In the case of `O=C(Nc1ccccc1C(=O)NCCN1CCOCC1)c1ccc(F)cc1F`, the Activity in the data set with HEK293 and in the data set with MDA-MB-231 [1] was above 90% each time.

For `Cc1ccccc1C(=O)Nc1ccccc1C(=O)NCCN1CCOCC1`, the Activity with HEK293 and in the data set on MDA-MB-231 [1] was above 70% throughout.

`O=C(Nc1ccccc1C(=O)NCCN1CCOCC1)c1ccccc1F` [listing 1 of 2 here]: the Activity in the data set on HEK293 and in the data set on MDA-MB-231 [1] was above 70% each time. In addition, the solubility in data set [2] is below 0.01 g; in data set [3], 0.2 g; in [4] it was 0.09 g; in [5] it was 3.71 g; in [6], 0.34 g; in [7] it was 2.91 g. Besides, the solubility in data set [8] came out at 0.09 g.

As to `O=C(Nc1ccccc1C(=O)NCCN1CCOCC1)c1ccc([N+](=O)[O-])cc1`, the Activity with HEK293 and with MDA-MB-231 [1] was above 70% throughout.

Turning to `O=C(Nc1ccccc1C(=O)NCN1CCCC1)c1ccccc1F`, the Activity in the data set with HEK293 and with MDA-MB-231 [1] was above 70% in each case. In addition, in the data set with MDA-MB-231 [9], the IC50 (commonly the concentration that inhibits the measured activity by half) was found to be 3.65 µM.

In the case of `COc1cc(OC)cc(C(=O)Nc2ccccc2C(=O)NCCN2CCOCC2)c1`, the Activity with HEK293 and in the data set on MDA-MB-231 [1] was above 90% in each case.

Consider `O=C(Nc1ccccc1C(=O)NCCN1CCCCC1)c1ccccc1F`, for which the Activity with HEK293 and in the data set on MDA-MB-231 [1] was above 70% throughout. Also, in data set [10], the inhibition entry was “Active”.

Consider `Cl.O=C(Nc1ccccc1C(=O)NCCN1CCOCC1)c1ccccc1F`, for which the solubility in data set [2] is reported as 0.95 g; in [3], 0.59 g; in data set [4], 0.19 g; in data set [5] it was below 0.01 g; in data set [6], 0.02 g; in [7], 0.9 g. Also, the solubility in [8] worked out at 0.01 g.

`O=C(NCCN1CCOCC1)c1ccccc1NC(=O)c1c(F)cccc1F`: the Activity in the data set on HEK293 and with MDA-MB-231 [1] was above 90% each time.

For `COc1cc(C(=O)Nc2ccccc2C(=O)NCCN2CCOCC2)cc(OC)c1OC`, the Activity in the data set with HEK293 and in the data set with MDA-MB-231 [1] was above 90% throughout.

Consider `COc1cccc(C(=O)NCCN2CCOCC2)c1NC(=O)c1ccccc1F`, for which the Activity in the data set with HEK293 and in the data set on MDA-MB-231 [1] was above 70% each time.

Turning to `O=C(Nc1ccccc1C(=O)NCCN1CCOCC1)c1cc(F)cc(F)c1`, the Activity in the data set on HEK293 and with MDA-MB-231 [1] was above 90% throughout.

Take `O=C(Nc1ccc(I)cc1C(=O)NCCN1CCOCC1)c1ccccc1F`: in data set [10], the inhibition entry was “Active”.

Turning to `O=C(Nc1ccccc1C(=O)NCCN1CCOCC1)c1ccc(F)cc1`, the Activity with HEK293 and in the data set with MDA-MB-231 [1] was above 70% in each case.

`NCCNC(=O)c1ccccc1NC(=O)c1ccccc1F`: the Activity in the data set with HEK293 and in the data set with MDA-MB-231 [1] was above 70% each time.

Consider `O=C(Nc1ccccc1C(=O)NCCN1CCOCC1)c1ccccc1F` [listing 2 of 2 here], for which the inhibition result in data set [10] is “Active”.

In the case of `COc1cccc(C(=O)Nc2ccccc2C(=O)NCCN2CCOCC2)c1`, the Activity in the data set with HEK293 and in the data set on MDA-MB-231 [1] was above 70% each time.

Consider `COc1ccc(C(=O)Nc2ccccc2C(=O)NCCN2CCOCC2)cc1OC`, for which the Activity in the data set with HEK293 and in the data set with MDA-MB-231 [1] was above 90% each time.

Consider `O=C(Nc1ccccc1C(=O)NCCCN1CCOCC1)c1ccccc1F`, for which the Activity in the data set on HEK293 and with MDA-MB-231 [1] was above 70% throughout. Moreover, in data set [10], the inhibition result is “Active”.

In the case of `COc1ccc(C(=O)Nc2ccccc2C(=O)NCCN2CCOCC2)cc1`, the Activity with HEK293 is on record as above 70%; in the data set on MDA-MB-231 [1] it was above 70%; with MDA-MB-231 [11], below 50%. The inhibition entry in [10] is “Active”.

On to `O=C(NCCN1CCOCC1)c1ccccc1NC(=O)c1ccccc1[N+](=O)[O-]`, for which the Activity with HEK293 and with MDA-MB-231 [1] was above 70% each time.

These data come from ChEMBL document CHEMBL4421724, “2-benzoylaminobenzamide derivatives as bcl-3 inhibitors” (2016).
